Assay [1] has as its target T1, Glucagon-like peptide 1 receptor (Rattus norvegicus, UniProt P32301).
T1 sequence (P32301 whole entry): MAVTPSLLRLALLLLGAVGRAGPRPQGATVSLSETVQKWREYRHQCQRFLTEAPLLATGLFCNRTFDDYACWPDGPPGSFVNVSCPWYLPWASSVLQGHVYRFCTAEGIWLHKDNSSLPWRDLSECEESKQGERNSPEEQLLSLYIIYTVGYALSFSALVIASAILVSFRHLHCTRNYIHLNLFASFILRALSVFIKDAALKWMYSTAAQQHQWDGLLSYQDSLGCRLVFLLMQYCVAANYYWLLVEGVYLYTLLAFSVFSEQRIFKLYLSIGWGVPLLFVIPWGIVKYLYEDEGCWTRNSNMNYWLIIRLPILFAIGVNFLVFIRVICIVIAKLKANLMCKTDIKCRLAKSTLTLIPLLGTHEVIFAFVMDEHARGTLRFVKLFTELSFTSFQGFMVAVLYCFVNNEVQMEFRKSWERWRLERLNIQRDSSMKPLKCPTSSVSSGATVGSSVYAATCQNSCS
In words: Agonist activity at GLP1R in rat INS-1 cells assessed as increase in glucose-stimulated insulin secretion after 1 hr by HTRF assay. The class given is cell-based.

The target of assay [2] is T2, Glucagon-like peptide 1 receptor (Homo sapiens, UniProt P43220). The experiment in a line: Agonist activity at human GLP1R expressed in CHO cells assessed as cAMP accumulation incubated for 30 mins by LANCE assay. The format is functional, cell-based.
Assay [3] concerns the target T2, Glucagon-like peptide 1 receptor. The experiment in a line: Displacement of [125I]-GLP (7 to 36 residues) from human GLP1R expressed in CHO cell membranes incubated for 30 mins measured after 10 hrs by scintillation proximity assay.
Assay [4] has the same target. The experiment in a line: Agonist activity at human GLP1R expressed in CHOK1 cells assessed as induction of beta-galactosidase-tagged beta-arrestin2 recruitment incubated for 90 mins by PathHunter enzyme complementation assay. The class given is cell-based.

Positions of bridges follow the written chain, without caps; N, C: chain ends. Residues, ends and D or L forms follow the SMILES beside them.

T2 sequence (P43220 whole entry, the tested form may be a part): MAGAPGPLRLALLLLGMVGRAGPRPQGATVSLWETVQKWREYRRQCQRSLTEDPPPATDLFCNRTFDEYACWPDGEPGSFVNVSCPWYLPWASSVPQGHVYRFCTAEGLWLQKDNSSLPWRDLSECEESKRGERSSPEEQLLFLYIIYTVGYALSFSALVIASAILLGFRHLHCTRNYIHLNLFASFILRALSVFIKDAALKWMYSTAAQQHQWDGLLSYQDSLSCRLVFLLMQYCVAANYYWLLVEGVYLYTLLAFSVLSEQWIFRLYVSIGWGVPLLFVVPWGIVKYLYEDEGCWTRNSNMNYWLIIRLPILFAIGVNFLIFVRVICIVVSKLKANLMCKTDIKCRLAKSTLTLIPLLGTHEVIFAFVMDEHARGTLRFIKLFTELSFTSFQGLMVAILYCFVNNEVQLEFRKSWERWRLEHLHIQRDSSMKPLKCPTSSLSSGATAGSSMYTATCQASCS

Take `CC[C@H](C)[C@H](NC(=O)[C@H](Cc1ccccc1)NC(=O)[C@H](CCC(=O)O)NC(=O)[C@H](CCCCN)NC(=O)[C@H](C)NC(=O)[C@H](C)NC(=O)[C@H](CCC(N)=O)NC(=O)CNC(=O)[C@H](CCC(=O)O)NC(=O)[C@H](CC(C)C)NC(=O)[C@H](Cc1ccc(O)cc1)NC(=O)[C@@H]1CC(=O)NCCCC[C@H](NC(=O)[C@@H](NC(=O)[C@H](Cc2ccccc2)NC(=O)[C@@H](NC(=O)CNC(=O)[C@H](CCC(=O)O)NC(=O)[C@H](C)NC(=O)[C@@H](N)Cc2cnc[nH]2)[C@@H](C)O)[C@@H](C)O)C(=O)N[C@@H](CC(=O)O)C(=O)N[C@@H](C(C)C)C(=O)N[C@@H](CO)C(=O)N1)C(=O)N[C@@H](C)C(=O)N[C@@H](Cc1c[nH]c2ccccc12)C(=O)N[C@@H](CC(C)C)C(=O)N[C@H](C(=O)N[C@@H](CCCCN)C(=O)NCC(=O)N[C@@H](CCCNC(=N)N)C(=O)NCC(N)=O)C(C)C` (H-HAEGTFTKDVSDYLEGQAAKEFIAWLVKGRG-NH2; lactam 8-12): in assay [1], the EC50 was 50 nM.

On to `CC[C@H](C)[C@H](NC(=O)[C@H](Cc1ccccc1)NC(=O)[C@H](CCC(=O)O)NC(=O)[C@H](CCCCN)NC(=O)[C@H](C)NC(=O)[C@H](C)NC(=O)[C@H](CCC(N)=O)NC(=O)[C@@H]1CCCN1C(=O)[C@H](CCC(=O)O)NC(=O)[C@H](CC(C)C)NC(=O)[C@H](Cc1ccc(O)cc1)NC(=O)[C@H](CO)NC(=O)[C@H](CO)NC(=O)[C@@H](NC(=O)[C@H](CC(=O)O)NC(=O)[C@H](CO)NC(=O)[C@@H](NC(=O)[C@H](Cc1ccccc1)NC(=O)[C@@H](NC(=O)CNC(=O)[C@H](CCC(=O)O)NC(=O)[C@H](C)NC(=O)[C@@H](N)Cc1cnc[nH]1)[C@@H](C)O)[C@@H](C)O)C(C)C)C(=O)N[C@H]1CCCCNC(=O)C[C@@H](C(=O)NCC(=O)N[C@@H](CCCNC(=N)N)C(=O)NCC(N)=O)NC(=O)[C@H](C(C)C)NC(=O)[C@H](CC(C)C)NC(=O)[C@H](Cc2c[nH]c3ccccc23)NC1=O` (H-HAEGTFTSDVSSYLEPQAAKEFIKWLVDGRG-NH2; lactam 24-28), for which the figures for the EC50 in assay [2] and in assay [4] were 0.35 nM and 33 nM, respectively. Moreover, in assay [3], the Ki was found to be 18 nM.

Take `CC[C@H](C)[C@H](NC(=O)[C@H](Cc1ccccc1)NC(=O)[C@H](CCC(=O)O)NC(=O)[C@H](CCCCN)NC(=O)[C@H](C)NC(=O)[C@H](C)NC(=O)[C@H](CCC(N)=O)NC(=O)CNC(=O)[C@H](CCC(=O)O)NC(=O)[C@H](CC(C)C)NC(=O)[C@H](Cc1ccc(O)cc1)NC(=O)[C@H](CO)NC(=O)[C@H](CO)NC(=O)[C@H](Cc1ccc(O)cc1)NC(=O)[C@H](CC(=O)O)NC(=O)[C@H](CO)NC(=O)[C@@H](NC(=O)[C@H](Cc1ccccc1)NC(=O)[C@@H](NC(=O)CNC(=O)[C@H](CCC(=O)O)NC(=O)[C@H](C)NC(=O)[C@@H](N)Cc1cnc[nH]1)[C@@H](C)O)[C@@H](C)O)C(=O)N[C@H]1CCCCNC(=O)C[C@@H](C(=O)NCC(=O)N[C@@H](CCCNC(=N)N)C(=O)NCC(N)=O)NC(=O)[C@H](C(C)C)NC(=O)[C@H](CC(C)C)NC(=O)[C@H](Cc2c[nH]c3ccccc23)NC1=O` (H-HAEGTFTSDYSSYLEGQAAKEFIKWLVDGRG-NH2; lactam 24-28): the concentration giving a half-maximal response (EC50) in assay [2] came to 0.023 nM; in assay [4] it was 3.4 nM. The compound further displayed a Ki in assay [3] of 0.49 nM.

In the case of `CC[C@H](C)[C@H](NC(=O)[C@H](Cc1ccccc1)NC(=O)[C@H](CCC(=O)O)NC(=O)[C@H](CCCCN)NC(=O)[C@H](C)NC(=O)[C@H](C)NC(=O)[C@H](CCC(N)=O)NC(=O)CNC(=O)[C@H](CCC(=O)O)NC(=O)[C@H](CC(C)C)NC(=O)[C@H](Cc1ccc(O)cc1)NC(=O)[C@H](CO)NC(=O)[C@H](Cc1ccc(O)cc1)NC(=O)[C@@H](NC(=O)[C@H](CC(=O)O)NC(=O)[C@H](CO)NC(=O)[C@@H](NC(=O)[C@H](Cc1ccccc1)NC(=O)[C@@H](NC(=O)CNC(=O)[C@H](CCC(=O)O)NC(=O)[C@H](C)NC(=O)[C@@H](N)Cc1cnc[nH]1)[C@@H](C)O)[C@@H](C)O)C(C)C)C(=O)N[C@@H](C)C(=O)N[C@@H](Cc1c[nH]c2ccccc12)C(=O)N[C@@H](CC(C)C)C(=O)N[C@H](C(=O)N[C@@H](CCCCN)C(=O)NCC(=O)N[C@@H](CCCNC(=N)N)C(=O)NCC(N)=O)C(C)C`, the EC50 in assay [1] was 16 nM.

The values are drawn from ChEMBL document CHEMBL3994575, “Helixconstraints and amino acid substitution in GLP-1 increase cAMP and insulin secretion but not beta-arrestin 2 signaling” (Eur J Med Chem, 2017).
